Data on 12 compounds can be found in patent US20100119599A1 (ARCHER PHARMACEUTICALS, INC., priority 2006, published 2010).

One assay concerns Aβ1-42. The assay can be described thus: Measurement of Aβ1-42 in culture medium of 7W WT APP751 CHO cells by ELISA.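 As to Aβ1-42 (% of control): 5 µM test compound but RI-coded compounds at 10 µM for 24 hours.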 The format is cell-based, Chinese hamster. The settings on record: for Aβ1-42 (% of control): CHO cells that overexpress APP751, zero = below the detection limit of the assay; for activity at 5 µM: Cricetulus griseus, 5 μM test compound, CHO cells stably transfected with human APP751, culture medium, ELISA, control DMSO.

Another assay relates to Aβ1-40. The assay can be described thus: Measurement of Aβ1-40 in culture medium of 7W WT APP751 CHO cells by ELISA.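 As to all read-outs here: 5 µM test compound but RI-coded compounds at 10 µM for 24 hours.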 The format is cell-based, Chinese hamster. As to conditions: for Aβ1-40 (% of control): CHO cells that overexpress APP751, zero = below the detection limit of the assay; for activity at 5 µM: Cricetulus griseus, 5 μM test compound, CHO cells stably transfected with human APP751, culture medium, ELISA, control DMSO. For orientation: An ELISA detects its analyte on a solid surface through an enzyme-linked reagent.

The mark [1] stands for this setting: Table 1, 0 = no detectable amount, read-out: Aβ1-42 (% of control).
Setting [2] is: Table 1, 0 = no detectable amount.

Where a name gives a salt, the structure may show the parent alone. Read-outs that look alike come from different tables or passages of the source.

As to `CC1=C(C(=O)Nc2ccccc2)C(c2cccs2)C(C#N)=C(SCC(=O)Nc2ccccc2C)N1` (stereo not drawn) [ST050837, 2-[3-cyano-6-methyl-5-(N-phenylcarbamoyl)-4-(2-thienyl)(2-1,4-dihydropyridylthio)]-N-(2-methylphenyl)acetamide], in the assay with Aβ1-42, the “Aβ1-42 (% of control)” value is recorded as 41.29 % of control. Besides, the “Aβ1-40 (% of control)” value in the assay on Aβ1-40 is on record as 95.44 % of control.
The like results for `CCOC(=O)C1=c2s/c(=C/c3ccc(C)s3)c(=O)n2C(N)=C(C#N)C1c1ccc(C)s1` (stereo not drawn) [ST011766] were, in that order, 9.558 % of control and 21.1 % of control.
In the case of `CCCCOC(=O)C1=C(C)NC2=C(C(=O)CCC2)C1c1ccccc1OCCCC` (stereo not drawn) [ST013330, butyl 4-(2-butoxyphenyl)-2-methyl-5-oxo-1,4,6,7,8-pentahydroquinoline-3-carboxylate], the activity at 5 µM with Aβ1-42 (setting [1]) is 86.5%; in the assay with Aβ1-40 (setting [2]), 38%.
Regarding `CCOCCOC(=O)C1=C(C)NC2=C(C(=O)CC(c3ccccc3)C2)C1c1ccccc1F` (stereo not drawn) [ST017312, 2-ethoxyethyl 4-(2-fluorophenyl)-2-methyl-5-oxo-7-phenyl-1,4,6,7,8-pentahydroquinoline-3-carboxylate], the activity at 5 µM is 71.2% in the assay on Aβ1-42 (setting [1]) and 15.3% in the assay with Aβ1-40 (setting [2]).
`CCOC(=O)C1=CN(c2cc(C)ccc2C)C=C(C(=O)OCC)C1c1ccccc1OCC` [ST052488, ethyl 1-(2,5-dimethylphenyl)-5-(ethoxycarbonyl)-4-(2-ethoxyphenyl)-1,4-dihydropyridine-3-carboxylate]: the “Aβ1-42 (% of control)” value with Aβ1-42 is recorded as 57.75 % of control. For the same compound, the “Aβ1-40 (% of control)” value with Aβ1-40 was 60.3 % of control.
Regarding `N#CC1=C(N)n2c(s/c(=C\c3ccc(O)cc3)c2=O)=C(C#N)C1c1ccc(O)cc1` (stereo not drawn) [ST025034, 5-amino-7-(4-hydroxyphenyl)-2-[(4-hydroxyphenyl)methylene]-3-oxo-4,7-dihydro-1,3-thiazolidino[3,2-a]pyridine-6,8-dicarbonitrile], the “Aβ1-42 (% of control)” value in the assay on Aβ1-42 was 85.11 % of control. The “Aβ1-40 (% of control)” value in the assay with Aβ1-40 is given as 69.9 % of control.
The like results for `CCc1cccc(NC(=O)CSC2=C(C#N)C(c3sccc3Br)C(C(=O)Nc3ccccc3)=C(C)N2)c1` (stereo not drawn) [RI_82] were, in that order, 67.9 % of control and 67.5 % of control.
Regarding `COC(=O)C1=C(C)NC2=C(C(=O)CC(C)(C)C2)C1c1ccc(OCc2cccc(C(F)(F)F)c2)c(OC)c1` (stereo not drawn) [ST028607, methyl 4-(3-methoxy-4-{[3-(trifluoromethyl)phenyl]methoxy}phenyl)-2,7,7-trimethyl-5-oxo-1,4,6,7,8-pentahydroquinoline-3-carboxylate], the activity at 5 µM in the assay on Aβ1-42 (setting [1]) amounted to 63.3%; in the assay with Aβ1-40 (setting [2]), 23.8%.
With `CCCOc1ccccc1C1C(C(=O)OCCOc2ccccc2)=C(C)NC2=C1C(=O)CC(C)(C)C2` (stereo not drawn) [ST015105, 2-phenoxyethyl 2,7,7-trimethyl-5-oxo-4-(2-propoxyphenyl)-1,4,6,7,8-pentahydroquinoline-3-carboxylate], the activity at 5 µM in the assay with Aβ1-42 (setting [1]) is 99.8%; with Aβ1-40 (setting [2]), 53%.
The like results for `CC1=C(C(=O)OC2CCCC2)C(c2cccc(Cl)c2)C2=C(CCCC2=O)N1` (stereo not drawn) [ST013156, cyclopentyl 4-(3-chlorophenyl)-2-methyl-5-oxo-1,4,6,7,8-pentahydroquinoline-3-carboxylate] were, in that order, 13.7% and 0%.
As for `N#Cc1c(S)[nH]c(C(F)(F)F)cc1=O` [ST014350, 4-oxo-2-sulfanyl-6-(trifluoromethyl)hydropyridine-3-carbonitrile, 4-methylmorpholine salt], the activity at 5 µM stood at 46.1% in the assay on Aβ1-42 (Table 3, read-out: Aβ-42 (% of control)) and 81.8% in the assay on Aβ1-40 (Table 3).
As to `COc1ccccc1C1C(C(=O)OCCOc2ccccc2)=C(C)NC2=C1C(=O)CC(C)(C)C2` (stereo not drawn) [ST015108, 2-phenoxyethyl 4-(2-methoxyphenyl)-2,7,7-trimethyl-5-oxo-1,4,6,7,8-pentahydroquinoline-3-carboxylate], the values for the activity at 5 µM in the assay on Aβ1-42 (setting [1]) and in the assay with Aβ1-40 (setting [2]) were 92.1% and 33%, respectively.
